Test results as given in patent US20260028326A1, “COMPOUND BASED ON ISOINDOLINE-SUBSTITUTED GLUTARIMIDE BACKBONE AND USE THEREOF” (GLUETACS THERAPEUTICS (SHANGHAI) CO., LTD., priority 2022, published 2026).

These compounds were tested against human Cereblon WT GST-tagged protein (Homo sapiens (Human), UniProt Q96SW2) (assay: CRBN-binding affinity, HTRF (CEREBLON BINDING kit)).
In short: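 HTRF competition readout: compounds compete with a thalidomide-Re conjugate for GST-tagged wild-type human CRBN detected via Eu-labelled anti-GST antibody. Inhibition rate derived relative to protein-free blank wells.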

Sequence of human Cereblon WT GST-tagged protein (Q96SW2 whole entry): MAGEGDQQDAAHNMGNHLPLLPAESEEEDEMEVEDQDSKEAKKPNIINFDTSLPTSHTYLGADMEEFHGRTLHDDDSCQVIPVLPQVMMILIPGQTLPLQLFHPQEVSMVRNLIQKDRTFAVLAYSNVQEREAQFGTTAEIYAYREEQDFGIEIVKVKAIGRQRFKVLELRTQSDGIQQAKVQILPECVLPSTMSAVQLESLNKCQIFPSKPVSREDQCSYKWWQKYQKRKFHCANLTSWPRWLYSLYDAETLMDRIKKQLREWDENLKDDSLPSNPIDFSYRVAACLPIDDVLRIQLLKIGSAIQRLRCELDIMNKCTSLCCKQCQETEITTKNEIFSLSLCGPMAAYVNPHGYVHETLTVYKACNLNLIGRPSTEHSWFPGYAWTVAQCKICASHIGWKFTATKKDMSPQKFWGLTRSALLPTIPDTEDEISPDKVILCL

Row | SMILES | IC50
1 | CC1(C)CCC(C(=O)N2CCN(Cc3ccc4c(c3)CN(C3CCC(=O)NC3=O)C4=O)CC2)=C(c2ccc(F)cc2)C1 (centres unmarked) [GT-05520, 3-(5-((4-(4′-fluoro-5,5-dimethyl-3,4,5,6-tetrahydro-[1,1′-biphenyl]-2-carbonyl)piperazin-1-yl)methyl)-1-oxoisoindolin-2-yl)piperidine-2,6-dione] | 350 nM
2 | O=C1CCC(N2Cc3cc(CN4CCN(C(=O)c5cnc(-c6ccccc6)cn5)CC4)ccc3C2=O)C(=O)N1 (centres unmarked) [GT-05635, 3-(1-oxo-5-((4-(5-phenylpyrazine-2-carbonyl)piperazin-1-yl)methyl)isoindolin-2-yl)piperidine-2,6-dione] | 1000 nM
3 | CC1(C)CCC(C(=O)N2CC(Cc3ccc4c(c3)CN(C3CCC(=O)NC3=O)C4=O)C2)=C(c2ccc(F)cc2)C1 (centres unmarked) [GT-05488, 3-(5-((1-(4′-fluoro-5,5-dimethyl-3,4,5,6-tetrahydro-[1,1′-biphenyl]-2-carbonyl)azetidin-3-yl)methyl)-1-oxoisoindolin-2-yl)piperidine-2,6-dione] | 600 nM
4 | CC1(C)CCC(CN2CC3CCC(C2)N3C(=O)c2ccc3c(c2)CN(C2CCC(=O)NC2=O)C3=O)=C(c2ccc(Cl)cc2)C1 (centres unmarked) [GT-05458, 3-(5-(3-((4′-chloro-5,5-dimethyl-3,4,5,6-tetrahydro-[1,1′-biphenyl]-2-yl)methyl)-3,8-diazabicyclo[3.2.1]octane-8-carbonyl)-1-oxoisoindolin-2-yl)piperidine-2,6-dione] | 1410 nM
5 | CC1(C)CCC(CN2CC3CCC2CN3Cc2cccc3c2CN(C2CCC(=O)NC2=O)C3=O)=C(c2ccc(Cl)cc2)C1 (centres unmarked) [GT-05461, 3-(4-((5-((4′-chloro-5,5-dimethyl-3,4,5,6-tetrahydro-[1,1′-biphenyl]-2-yl)methyl)-2,5-diazabicyclo[2.2.2]octan-2-yl)methyl)-1-oxoisoindolin-2-yl)piperidine-2,6-dione] | 1580 nM
6 | O=C1CCC(N2Cc3cc(CN4CC5CC4CN5C(=O)c4ccccc4-c4ccc(Cl)cc4)ccc3C2=O)C(=O)N1 (centres unmarked) [GT-05776, 3-(5-((5-(4′-chloro-[1,1′-biphenyl]-2-carbonyl)-2,5-diazabicyclo[2.2.1]heptan-2-yl)methyl)-1-oxoisoindolin-2-yl)piperidine-2,6-dione] | 420 nM
7 | CC1(C)CCC(CN2CC3CCC2CN3Cc2cccc3c2C(=O)N(C2CCC(=O)NC2=O)C3)=C(c2ccc(Cl)cc2)C1 (centres unmarked) [GT-05462, 3-(7-((5-((4′-chloro-5,5-dimethyl-3,4,5,6-tetrahydro-[1,1′-biphenyl]-2-yl)methyl)-2,5-diazabicyclo[2.2.2]octan-2-yl)methyl)-1-oxoisoindolin-2-yl)piperidine-2,6-dione] | 1900 nM
8 | CC1(C)CCC(CN2CCC(Nc3ccc4c(c3)CN(C3CCC(=O)NC3=O)C4=O)CC2)=C(c2ccc(Cl)cc2)C1 (centres unmarked) [GT-05782, 3-(5-((1-((4′-chloro-5,5-dimethyl-3,4,5,6-tetrahydro-[1,1′-biphenyl]-2-yl)methyl)piperidin-4-yl)amino)-1-oxoisoindolin-2-yl)piperidine-2,6-dione] | 1760 nM
9 | CC1(C)CCC(CN2C3CC2CN(Cc2cc4c(cc2F)C(=O)N(C2CCC(=O)NC2=O)C4)C3)=C(c2ccc(Cl)cc2)C1 (centres unmarked) [GT-05530, 3-(5-((6-((4′-chloro-5,5-dimethyl-3,4,5,6-tetrahydro-[1,1′-biphenyl]-2-yl)methyl)-3,6-diazabicyclo[3.1.1]heptan-3-yl)methyl)-6-fluoro-1-oxoisoindolin-2-yl)piperidine-2,6-dione] | 1200 nM
10 | O=C1CCC(N2Cc3cc(C(=O)N4CCCN(Cc5ccccc5-c5ccc(Cl)cc5)CC4)ccc3C2=O)C(=O)N1 (centres unmarked) [GT-05616, 3-(5-(4-((4′-chloro-[1,1′-biphenyl]-2-yl)methyl)-1,4-diazepane-1-carbonyl)-1-oxoisoindolin-2-yl)piperidine-2,6-dione] | 900 nM
11 | CC1(C)CCC(C(=O)N2CC3CCC(C2)N3c2ccc3c(c2)CN(C2CCC(=O)NC2=O)C3=O)=C(c2ccc(F)cc2)C1 (centres unmarked) [GT-05492, 3-(5-(3-(4′-fluoro-5,5-dimethyl-3,4,5,6-tetrahydro-[1,1′-biphenyl]-2-carbonyl)-3,8-diazabicyclo[3.2.1]octan-8-yl)-1-oxoisoindolin-2-yl)piperidine-2,6-dione] | 830 nM
12 | O=C1CCC(N2Cc3cc(CN4CC5CN(C(=O)c6ccccc6-c6ccc(Cl)cc6)CC5C4)ccc3C2=O)C(=O)N1 (centres unmarked) [GT-05645, 3-(5-((5-(4′-chloro-[1,1′-biphenyl]-2-carbonyl)hexahydropyrrolo[3,4-c]pyrrol-2(1H)-yl)methyl)-1-oxoisoindolin-2-yl)piperidine-2,6-dione] | 700 nM
13 | CC1(C)CCC(CN2CCN(Cc3cc(F)c4c(c3)CN(C3CCC(=O)NC3=O)C4=O)CC2)=C(c2ccc(F)cc2)C1 (centres unmarked) [GT-05392, 3-(7-fluoro-5-((4-((4′-fluoro-5,5-dimethyl-3,4,5,6-tetrahydro-[1,1′-biphenyl]-2-yl)methyl)piperazin-1-yl)methyl)-1-oxoisoindolin-2-yl)piperidine-2,6-dione] | 440 nM
14 | O=C1CCC(N2C(=O)c3ccc(N4CC5CCC4CN5Cc4ccccc4-c4ccc(Cl)cc4)cc3C2=O)C(=O)N1 (centres unmarked) [GT-05374, 5-(5-((4′-chloro-[1,1′-biphenyl]-2-yl)methyl)-2,5-diazabicyclo[2.2.2]octan-2-yl)-2-(2,6-dioxopiperidin-3-yl)isoindoline-1,3-dione] | 520 nM
15 | CC1(C)CCC(CN2CC3CN(C(=O)c4ccc5c(c4)CN(C4CCC(=O)NC4=O)C5=O)CC3C2)=C(c2ccc(F)cc2)C1 (centres unmarked) [GT-05447, 3-(5-(5-((4′-fluoro-5,5-dimethyl-3,4,5,6-tetrahydro-[1,1′-biphenyl]-2-yl)methyl)octahydropyrrolo[3,4-c]pyrrole-2-carbonyl)-1-oxoisoindolin-2-yl)piperidine-2,6-dione] | 1150 nM
16 | O=C1CCC(N2Cc3cc(CN4C5CC4CN(Cc4ccccc4-c4ccc(Cl)cc4)C5)c(F)cc3C2=O)C(=O)N1 (centres unmarked) [GT-05609, 3-(5-((3-((4′-chloro-[1,1′-biphenyl]-2-yl)methyl)-3,6-diazabicyclo[3.1.1]heptan-6-yl)methyl)-6-fluoro-1-oxoisoindolin-2-yl)piperidine-2,6-dione] | 540 nM
17 | O=C1CCC(N2Cc3cc(NC4CN(Cc5ccccc5-c5ccc(Cl)cc5)C4)c(F)cc3C2=O)C(=O)N1 (centres unmarked) [GT-04204, 3-(5-((1-((4′-chloro-[1,1′-biphenyl]-2-yl)methyl)azetidin-3-yl)amino)-6-fluoro-1-oxoisoindolin-2-yl)piperidine-2,6-dione] | 520 nM
18 | CC1(C)CCC(CN2C3CCC2CN(Cc2ccc4c(c2)CN(C2CCC(=O)NC2=O)C4=O)C3)=C(c2ccc(Cl)cc2)C1 (centres unmarked) [GT-03996, 3-(5-((8-((4′-chloro-5,5-dimethyl-3,4,5,6-tetrahydro-[1,1′-biphenyl]-2-yl)methyl)-3,8-diazabicyclo[3.2.1]octan-3-yl)methyl)-1-oxoisoindolin-2-yl)piperidine-2,6-dione] | 1440 nM
19 | O=C1CCC(N2Cc3cc(C(=O)N4CCN(CC5=C(c6ccc(F)cc6)CCCC5)CC4)ccc3C2=O)C(=O)N1 (centres unmarked) [GT-05863, 3-(5-(4-((4′-fluoro-3,4,5,6-tetrahydro-[1,1′-biphenyl]-2-yl)methyl)piperazine-1-carbonyl)-1-oxoisoindolin-2-yl)piperidine-2,6-dione] | 1020 nM
20 | CC1(C)CCC(CN2C3CC2CN(c2ccc4c(c2)C(=O)N(C2CCC(=O)NC2=O)C4=O)C3)=C(c2ccc(Cl)cc2)C1 (centres unmarked) [GT-05378, 5-(6-((4′-chloro-5,5-dimethyl-3,4,5,6-tetrahydro-[1,1′-biphenyl]-2-yl)methyl)-3,6-diazabicyclo[3.1.1]heptan-3-yl)-2-(2,6-dioxopiperidin-3-yl)isoindoline-1,3-dione] | 1770 nM
21 | CC1(C)CCC(CN2CC3(C2)CN(C(=O)c2ccc4c(c2)CN(C2CCC(=O)NC2=O)C4=O)C3)=C(c2ccc(F)cc2)C1 (centres unmarked) [GT-05508, 3-(5-(6-((4′-fluoro-5,5-dimethyl-3,4,5,6-tetrahydro-[1,1′-biphenyl]-2-yl)methyl)-2,6-diazaspiro[3.3]heptane-2-carbonyl)-1-oxoisoindolin-2-yl)piperidine-2,6-dione] | 720 nM
22 | CC1(C)CCC(C(=O)N2CCN(Nc3ccc4c(c3)CN(C3CCC(=O)NC3=O)C4=O)CC2)=C(c2ccc(Cl)cc2)C1 (centres unmarked) [GT-05417, 3-(5-((4-(4′-chloro-5,5-dimethyl-3,4,5,6-tetrahydro-[1,1′-biphenyl]-2-carbonyl)piperazin-1-yl)amino)-1-oxoisoindolin-2-yl)piperidine-2,6-dione] | 1480 nM
23 | CC1(C)CCC(CN2CC3CC(C2)N3c2ccc3c(c2)C(=O)N(C2CCC(=O)NC2=O)C3=O)=C(c2ccc(F)cc2)C1 (centres unmarked) [GT-05386, 2-(2,6-dioxopiperidin-3-yl)-5-(3-((4′-fluoro-5,5-dimethyl-3,4,5,6-tetrahydro-[1,1′-biphenyl]-2-yl)methyl)-3,6-diazabicyclo[3.1.1]heptan-6-yl)isoindoline-1,3-dione] | 1460 nM
24 | O=C1CCC(N2Cc3cc(C(O)C4(O)CN(C(=O)c5ccccc5-c5ccc(Cl)cc5)C4)ccc3C2=O)C(=O)N1 (centres unmarked) [GT-05484, 3-(5-((1-(4′-chloro-[1,1′-biphenyl]-2-carbonyl)-3-hydroxyazetidin-3-yl)(hydroxy)methyl)-1-oxoisoindolin-2-yl)piperidine-2,6-dione] | 360 nM
25 | O=C1CCC(N2Cc3cc(CN4CC5CCC4CN5C(=O)c4ccccc4-c4ccc(Cl)cc4)ccc3C2=O)C(=O)N1 (centres unmarked) [GT-05543, 3-(5-((5-(4′-chloro-[1,1′-biphenyl]-2-carbonyl)-2,5-diazabicyclo[2.2.2]octan-2-yl)methyl)-1-oxoisoindolin-2-yl)piperidine-2,6-dione] | 450 nM
26 | CC1(C)CCC(CN2CCN(C(=O)c3ccc4c(c3)CN(C3CCC(=O)NC3=O)C4=O)CC2)=C(c2ccc(F)cc2)C1 (centres unmarked) [GT-05614, 3-(5-(4-((4′-fluoro-5,5-dimethyl-3,4,5,6-tetrahydro-[1,1′-biphenyl]-2-yl)methyl)piperazine-1-carbonyl)-1-oxoisoindolin-2-yl)piperidine-2,6-dione] | 1410 nM
